For 32 compounds, IC50 results are on record in patent US20220324865A1 (Bayer Aktiengesellschaft, priority 2018, published 2022).

Where a name gives a salt, the structure may show the parent alone.

The test has as its target T1, human EP3 receptor (Homo sapiens, UniProt P43115).
T1 construct: expressed in transfected cells; host or cells: CHO K1 (Chinese Hamster Ovary), stably co-transfected with Galpha16 and mitochondrial clytin
T1 sequence (P43115 1-390): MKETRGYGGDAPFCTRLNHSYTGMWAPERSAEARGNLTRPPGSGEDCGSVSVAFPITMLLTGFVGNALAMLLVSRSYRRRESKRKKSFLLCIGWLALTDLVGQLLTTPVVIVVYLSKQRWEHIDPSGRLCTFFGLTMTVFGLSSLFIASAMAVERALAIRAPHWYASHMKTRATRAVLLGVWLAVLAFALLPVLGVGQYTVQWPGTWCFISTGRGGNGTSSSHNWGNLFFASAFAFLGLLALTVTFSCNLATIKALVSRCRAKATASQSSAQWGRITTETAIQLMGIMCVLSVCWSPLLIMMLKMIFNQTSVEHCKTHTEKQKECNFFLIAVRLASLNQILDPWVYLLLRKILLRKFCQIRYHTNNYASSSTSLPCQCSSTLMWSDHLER
The test is described as follows: Cellular in vitro assay for determining EP3 receptor activity (human EP3 cell line, sulprostone-stimulated calcium luminescence). Format: cell-based. The note with it: CHO cells expressing human EP3 and mitochondrial Clytin; antagonist mode, sulprostone at EC50; read-out: EP3 CHO mtCLY ANTAG IC50. The method, then:
B-1. Cellular In Vitro Assay for Determining EP3 Receptor Activity
The identification of antagonists of the EP3 receptor from humans and rats as well as the quantification of the activity of the compounds of the invention was carried out using recombinant cell lines. These cell lines originally derive from a hamsters ovary epithelial cell (Chinese Hamster Ovary, CHO K1, ATCC: American Type Culture Collection, Manassas, Va. 20108, USA). The test cell lines constitutively express the human or rat EP3 receptors. The naturally Gαi-coupled human and rat EP3 receptors were stably co-transfected with Gα16 into cells that are also stably transfected with a mitochondrial form of the calcium-sensitive photoproteins Clytin (human EP3) or Photina (rat EP3), which, after reconstitution with the cofactor coelenterazine, emit light when there are increases in free calcium concentrations (Nature 1992, 358, 325-327; Gene 1995, 153 (2), 273-274). The resulting EP3 receptor cells react to stimulation of the recombinantly expressed EP3 receptors by the agonist sulprostone with intracellular release of calcium ions, which can be quantified by the resulting photoprotein luminescence. Antagonists inhibit the receptor signaling, leading to reduced calcium release and luminescence. The bioluminescence of the cell lines is detected using a suitable luminometer (Trends Pharmacol. Sci. 1996, 17, 235-237).
Human and Rat EP3 Cell Lines:
On the day before the assay, the cells are plated out in culture medium (OptiMEM, 1% FCS, 2 mM glutamine, 10 mM HEPES, 5 μg/ml coelenterazine) in 384-well microtiter plates and kept in a cell incubator (96% humidity, 5% v/v CO2, 37° C.). On the day of the assay, test compounds in various concentrations are placed for 10 minutes in the wells of the microtiter plate before the agonist sulprostone at EC50 concentration is added. The resulting light signal is measured immediately in a luminometer. All concentrations are measured in quadruples.
Usually IC50 stands for the concentration needed to halve the response being measured. Consider `O=C(NCC1CCCCC1)c1cc2c(=O)[nH]c(-c3ccc4c(c3)OCCO4)cn2n1` [Example 1-43, N-(Cyclohexylmethyl)-6-(2,3-dihydro-1,4-benzodioxin-6-yl)-4-oxo-4,5-dihydropyrazolo[1,5-a]-pyrazine-2-carboxamide], for which the IC50 amounted to 1.7 nM. With `Cc1ccc(-c2cn3nc(C(=O)N[C@H](C)CO)c(C4CC4)c3c(=O)[nH]2)cc1C` [Example 1-154, 3-Cyclopropyl-6-(3,4-dimethylphenyl)-N-[(2R)-1-hydroxpropan-2-yl]-4-oxo-4,5-dihydropyrazolo-[1,5-a]pyrazine-2-carboxamide], the concentration for half-maximal inhibition (IC50) was found to be 2.6 nM. `N#Cc1c(C(=O)NC2Cc3ccccc3C2)nn2cc(-c3ccc4ccccc4c3)[nH]c(=O)c12` [Example 3-55, 3-Cyano-N-(2,3-dihydro-1H-inden-2-yl)-6-(naphthalen-2-yl)-4-oxo-4,5-dihydropyrazolo[1,5-a]pyrazine-2-carboxamide]: the IC50 is 7.2 nM. The same measure for `CC(CN1CCOCC1)NC(=O)c1nn2cc(-c3ccc4ccccc4c3)[nH]c(=O)c2c1C(F)(F)F` (single isomer, unassigned) [6-524]: 7 nM. In the case of `Cc1cnn(C(CNC(=O)c2cc3c(=O)[nH]c(-c4ccc5ccccc5c4)cn3n2)C(C)C)c1` (centres unmarked) [Example 2-12, N-[3-Methyl-2-(4-methyl-1H-pyrazol-1-yl)butyl]-6-(2-naphthyl)-4-oxo-4,5-dihydropyrazolo[1,5-a]pyrazine-2-carboxamide] it was 4.65 nM; in that of `COc1ccc(CCNC(=O)c2nn3cc(-c4ccc5ccccc5c4)[nH]c(=O)c3c2C(C)C)cc1OC` [6-85], 0.887 nM; in that of `CC(C)(O)[C@@H](NC(=O)c1nn2cc(-c3ccc(Cl)c(Cl)c3)[nH]c(=O)c2c1C1CCC1)c1ccc(F)cc1` [6-568], 1.05 nM.

On to `Cc1ccc(-c2cn3nc(C(=O)NCc4ncc(C(F)(F)F)cc4Cl)cc3c(=O)[nH]2)cc1C` [6-9], for which the half-inhibitory concentration (IC50) was 5.75 nM.

As to `Cc1cc(-c2cn3nc(C(=O)N[C@@H](C)C4CC4)c(C4CC(F)(F)C4)c3c(=O)[nH]2)ccc1Cl` [6-558], the IC50 was 1.15 nM. On to `Cc1c(C(=O)N[C@H]2c3ccccc3C[C@H]2O)nn2c(C)c(-c3ccc4ccccc4c3)[nH]c(=O)c12` [Example 3-67, N-[(7S,2R)-2-Hydroxy-2,3-dihydro-1H-inden-1-yl]-3,7-dimethyl-6-(naphthalen-2-yl)-4-oxo-4,5-dihydropyrazolo[1,5-a]pyrazine-2-carboxamide], for which the IC50 worked out at 2.05 nM. As for `Cc1c(C(=O)NC2(c3ccccc3)CCOCC2)nn2c(C)c(-c3ccc4ccccc4c3)[nH]c(=O)c12` [Example 3-34, 3,7-Dimethyl-6-(2-naphthyl)-4-oxo-N-(4-phenyltetrahydro-2H-pyran-4-yl)-4,5-dihydropyrazolo[1,5-a]pyrazine-2-carboxamide], the IC50 was determined as 6.05 nM. The same measure for `Cc1ccc(-c2cn3nc(C(=O)N[C@@H](C)C(C)C)c(C4CC4)c3c(=O)[nH]2)cc1Cl` [6-252]: 0.84 nM; for `CCn1cnnc1CNC(=O)c1nn2cc(-c3cnc4cccc(C)c4c3)[nH]c(=O)c2c1C(C)C` [Example 4-20, N-[(4-Ethyl-4H-1,2,4-triazol-3-yl)methyl]-6-(5-methylquinolin-3-yl)-4-oxo-3-(propan-2-yl)-4,5-dihydropyrazolo[1,5-a]pyrazine-2-carboxamide]: 2.9 nM. In the case of `O=C(NC(CN1CCOCC1)c1ccc(F)cc1)c1cc2c(=O)[nH]c(-c3ccc4ccccc4c3)cn2n1` (centres unmarked) [Example 1-40, N-[1-(4-Fluorophenyl)-2-morpholinoethyl]-6-(2-naphthyl)-4-oxo-5H-pyrazolo[1,5-a]pyrazine-2-carboxamide] it was 8.27 nM; in that of `COc1ccc(CNC(=O)c2cc3c(=O)[nH]c(-c4ccc(C)c(Cl)c4)cn3n2)cc1OC` [6-80], 2.2 nM; in that of `Cc1cccc2ncc(-c3cn4nc(C(=O)NC(CCO)c5ccccc5Cl)c(C(C)C)c4c(=O)[nH]3)cc12` (centres unmarked) [Example 4-44, N-[1-(2-Chlorophenyl)-3-hydroxypropyl]-3-isopropyl-6-(5-methyl-3-quinolyl)-4-oxo-5H-pyrazolo[1,5-a]pyrazine-2-carboxamide], 1.45 nM. In the case of `Cc1ccc(-c2[nH]c(=O)c3c(C4CC4)c(C(=O)N[C@H](C)c4ccc(F)cc4)nn3c2F)cc1Cl` [6-663] it was 3.85 nM; in that of `O=C(NC(c1ccc(F)cc1)C1(O)CC1)c1nn2cc(-c3ccc(Cl)c(Cl)c3)[nH]c(=O)c2c1C1CC1` (single isomer, unassigned) [6-424], 0.68 nM. For the compound `Cc1ccc(-c2cn3nc(C(=O)N[C@H]4CCOC4)c(C(F)(F)F)c3c(=O)[nH]2)cc1Cl` [6-186], the concentration for half-maximal inhibition (IC50) amounted to 5.35 nM.

With `Cc1ccc(-c2cn3nc(C(=O)NCCN(CC(F)F)C4CC4)c(C4CC4)c3c(=O)[nH]2)cc1C` [6-460], the IC50 was 1.7 nM.

`Cc1nn(C)cc1CNC(=O)c1nn2c(C)c(-c3ccc4ccccc4c3)[nH]c(=O)c2c1C` [Example 3-9, N-[(1,3-Dimethyl-1H-pyrazol-4-yl)methyl]-3,7-dimethyl-6-(naphthalen-2-yl)-4-oxo-4,5-dihydropyrazolo[1,5-a]pyrazine-2-carboxamide]: the 50% inhibitory concentration (IC50) worked out at 1.95 nM.

Consider `Cc1ccc(-c2cn3nc(C(=O)N[C@H](CCO)c4ccc(F)cc4)cc3c(=O)[nH]2)cc1C` [Example 1-39, 6-(3,4-Dimethylphenyl)-N-[(1R)-1-(4-fluorophenyl)-3-hydroxpropyl]-4-oxo-4,5-dihydropyrazolo-[1,5-a]pyrazine-2-carboxamide], for which the half-maximal inhibitory concentration (IC50) is 0.265 nM. In the case of `Cc1c(C(=O)NCc2ccnn2C)nn2c(C)c(-c3ccc4ccccc4c3)[nH]c(=O)c12` [Example 3-11, 3,7-Dimethyl-N-[(1-methyl-1H-pyrazol-5-yl)methyl]-6-(naphthalen-2-yl)-4-oxo-4,5-dihydropyrazolo[1,5-a]pyrazine-2-carboxamide] it was 2.05 nM. In the case of `Cc1ccc(-c2cn3nc(C(=O)NC(CN(C)C)c4ccc(F)cc4)c(C4CC4)c3c(=O)[nH]2)cc1C` (single isomer, unassigned) [6-445] it was 7.1 nM; in that of `Cc1c(C(=O)NCc2ccccn2)nn2c(C)c(-c3ccc4ccccc4c3)[nH]c(=O)c12` [Example 3-70, 3,7-Dimethyl-6-(naphthalen-2-yl)-4-oxo-N-[(pyridin-2-yl)methyl]-4,5-dihydropyrazolo[1,5-a]pyrazine-2-carboxamide], 5.45 nM. The same measure for `CC(C)c1c(C(=O)N[C@H](C)C2CC2)nn2cc(-c3ccc(Cl)c(F)c3)[nH]c(=O)c12` [6-540]: 0.85 nM.

On to `CC(C)c1c(C(=O)N[C@@H](c2ccc(F)cc2)C(C)(C)O)nn2cc(-c3cccc(Cl)c3)[nH]c(=O)c12` [6-683], for which the IC50 was found to be 1.06 nM. The same measure for `O=C(N[C@H]1c2ccccc2C[C@@H]1O)c1nn2cc(-c3ccc4ccccc4c3)[nH]c(=O)c2c1C(F)(F)F` [Example 1-78, N-[(1S,2S)-2-Hydroxy-2,3-dihydro-1H-inden-1-yl]-6-(naphthalen-2-yl)-4-oxo-3-(trifluoromethyl)-4,5-dihydropyrazolo[1,5-a]pyrazine-2-carboxamide]: 1.06 nM. In the case of `CC(C)(C)CNC(=O)c1cc2c(=O)[nH]c(-c3ccc4ccccc4c3)cn2n1` [Example 2-11, N-(2,2-Dimethylpropyl)-6-(2-naphthyl)-4-oxo-4,5-dihydropyrazolo[1,5-a]pyrazine-2-carboxamide] it was 7.15 nM. In the case of `CN1CC(NC(=O)c2cc3c(=O)[nH]c(-c4ccc5ccccc5c4)cn3n2)(c2ccc(F)cc2)C1` [Example 1-49, N-[3-(4-Fluorophenyl)-1-methylazetidin-3-yl]-6-(naphthalen-2-yl)-4-oxo-4,5-dihydropyrazolo-[1,5-a]pyrazine-2-carboxamide formic acid salt] it was 7.65 nM.

On to `CC(C)(O)[C@@H](NC(=O)c1cc2c(=O)[nH]c(-c3ccc(Cl)c(Cl)c3)cn2n1)c1ccc(F)cc1` [6-636], for which the half-inhibitory concentration (IC50) is 7.63 nM.

Regarding `CC(C)(O)[C@@H](NC(=O)c1nn2cc(-c3ccc4c(c3)OCCO4)[nH]c(=O)c2c1C1CC1)c1ccc(F)cc1` [6-466], the concentration for half-maximal inhibition (IC50) amounted to 5.4 nM.
